Legend:
Type in all cases: nucleic-acid assay
[1] = tested on: Nucleic Acid; assay: Thermal denaturation in alternating poly(dA-dT)poly(dA-dT) homopolymer (AT)
[2] = tested on: Calf thymus DNA; assay: Thermal denaturation in sonicated calf thymus DNA (CT DNA); settings: Bos taurus
[3] = tested on: Nucleic Acid; assay: Thermal denaturation in sonicated poly(dA)-poly(dT) homopolymer (AT)
[4] = tested on: Nucleic Acid; assay: Thermal denaturation in alternating poly(dG-dC)-poly(dG-dC) homopolymer (GC)
[5] = tested on: Nucleic Acid; assay: Ratio between poly-dAdT and poly-dGdC binding

Structure (SMILES) | Tm [1] [°C] | Tm [2] [°C] | Tm [3] [°C] | Tm [4] [°C] | Ratio [5]
c1cc2[nH]c(CCc3nc4cc(C5=NCCN5)ccc4[nH]3)nc2cc1C1=NCCN1 | 34.6 | 18.5 | 40 | 3 | –
c1cc2[nH]c(CCCCc3nc4cc(C5=NCCN5)ccc4[nH]3)nc2cc1C1=NCCN1 | 28.9 | 15.3 | 34.5 | 4.6 | 6
N=C(N)c1ccc2c(ccn2Cc2ccc(Cn3ccc4cc(C(=N)N)ccc43)cc2)c1 | 11.9 | 9.3 | 10.8 | 5.4 | 2.2
N=C(N)c1ccc2c(ccn2CCCCCCn2ccc3cc(C(=N)N)ccc32)c1 | 13.4 | 10.5 | 17.7 | 5.9 | 2.3
CC(C)NC(=N)c1ccc2[nH]c(/C=C/c3nc4cc(C(=N)NC(C)C)ccc4[nH]3)nc2c1 | 22.5 | 22.8 | 31.6 | 5.5 | 5
N=C(N)c1ccc2[nH]c(CCCCCCc3nc4cc(C(=N)N)ccc4[nH]3)nc2c1 | 28 | 13.5 | 34 | 3.5 | 8
O=[N+]([O-])c1ccc2[nH]c(CCc3nc4cc([N+](=O)[O-])ccc4[nH]3)nc2c1 | 0.2 | 1.5 | 0.5 | 2.6 | –
CC(C)NC(=N)c1ccc2[nH]c(CCc3nc4cc(C(=N)NC(C)C)ccc4[nH]3)nc2c1 | 32.9 | 19.2 | 37.3 | 3.3 | 10
N=C(N)c1ccc2[nH]c(CCCc3nc4cc(C(=N)N)ccc4[nH]3)nc2c1 | 20.1 | 10.6 | 30.6 | 3.3 | 6
N=C(N)c1ccc2c(ccn2CCCn2ccc3cc(C(=N)N)ccc32)c1 | 20.3 | 13.7 | 19.2 | 6.5 | 3.1
c1ccc2[nH]c(CCc3nc4ccccc4[nH]3)nc2c1 | 0.1 | 4.3 | 2.1 | 1 | –
CN1CCN(c2ccc3[nH]c(-c4ccc5[nH]c(-c6ccc(O)cc6)nc5c4)nc3c2)CC1 | 24.1 | 14.1 | 32.4 | 2.5 | 10
N=C(N)c1ccc2[nH]c(Cc3nc4ccccc4[nH]3)nc2c1 | 1 | 1.4 | 1.3 | 0.2 | –
N=C(N)c1ccc2[nH]c(/C=C/c3nc4cc(C(=N)N)ccc4[nH]3)nc2c1 | 42.4 | 21.8 | 46.1 | 5.8 | 7
OC/C=N\c1ccc2[nH]c(CCc3nc4cc(/N=C/CO)ccc4[nH]3)nc2c1 | 1.4 | 2 | 4.5 | 0.7 | 3
C/C(=C(/C)c1nc2cc(C(=N)N)ccc2[nH]1)c1nc2cc(C(=N)N)ccc2[nH]1 | 15.6 | 14.1 | 17.3 | 4.6 | 3
CC(C)NC(=N)c1ccc2[nH]c(-c3ccc(-c4nc5cc(C(=N)NC(C)C)ccc5[nH]4)cc3)nc2c1 | 45 | 22.3 | 44.3 | 5.6 | 8
N=C(N)c1ccc2[nH]c(CCCCc3nc4cc(C(=N)N)ccc4[nH]3)nc2c1 | 31.3 | 15.9 | 33.5 | 3.3 | 9
N=C(N)c1ccc2nc(Cc3nc4ccc(C(=N)N)cc4[nH]3)[nH]c2c1 | 11.5 | 7.6 | 9.2 | 3.5 | 3
N=C(N)c1ccc2[nH]c(-c3cccc(-c4nc5cc(C(=N)N)ccc5[nH]4)c3)nc2c1 | 23.9 | 12.8 | 34.6 | 5.6 | 4

Structure (SMILES) | Tm [1] [°C] | Tm [2] [°C] | Tm [3] [°C] | Tm [4] [°C] | Ratio [5]
N=C(N)c1ccc(OCCCCCOc2ccc(C(=N)N)cc2)cc1 | 20.2 | 10.7 | 22.9 | 3.2 | 6
c1cc2[nH]c(CCc3nc4cc(C5=NCCCN5)ccc4[nH]3)nc2cc1C1=NCCCN1 | 39.5 | 19.7 | 45.1 | 2.7 | 15
N=C(N)c1ccc2[nH]c(CCc3nc4cc(C(=N)N)ccc4[nH]3)nc2c1 | 37.2 | 18.5 | 42.4 | 4 | 4
N=C(N)c1ccc2c(ccn2Cc2cccc(Cn3ccc4cc(C(=N)N)ccc43)c2)c1 | 9.2 | 8.1 | 8.1 | 4 | 2.3
Nc1ccc2nc(CCc3nc4ccc(N)cc4[nH]3)[nH]c2c1 | 0.6 | 1.6 | 3 | 2.6 | –
N=C(N)c1ccc2[nH]c(-c3ccc(-c4nc5cc(C(=N)N)ccc5[nH]4)cc3)nc2c1 | 21.7 | 13.3 | 27.5 | 3.1 | 7
N=C(N)c1ccc2c(ccn2CCCCn2ccc3cc(C(=N)N)ccc32)c1 | 16.3 | 12.1 | 18.2 | 7.3 | 2.2
c1cc2[nH]c(Cc3nc4cc(C5=NCCN5)ccc4[nH]3)nc2cc1C1=NCCN1 | 10.7 | 6.9 | 13.5 | 4.1 | 3
C1=NCCCN1Cc1ccc2[nH]c(CCc3nc4cc(CN5C=NCCC5)ccc4[nH]3)nc2c1 | 28.9 | 13.3 | 30.7 | 1.6 | 18
CC[n+]1c(-c2ccccc2)c2cc(N)ccc2c2ccc(N)cc21 | 16.8 | 12.4 | 9.9 | 5.3 | 3
Cn1cc(NC(=O)c2cc(NC(=O)CNC(=N)N)cn2C)cc1C(=O)NCCC(=N)N | 35.1 | 19 | 46.6 | 1.1 | 32
c1cc2[nH]c(CCc3nc4cc(N5CCOCC5)ccc4[nH]3)nc2cc1N1CCOCC1 | 0.8 | 0.6 | 0.9 | -0.3 | –
c1cc2[nH]c(CCCc3nc4cc(C5=NCCN5)ccc4[nH]3)nc2cc1C1=NCCN1 | 20.1 | 9.9 | 24.8 | 3.3 | 6
N=C(N)c1ccc(-c2cc3ccc(C(=N)N)cc3[nH]2)cc1 | 40.5 | 21.5 | 38.8 | 6.9 | 6
c1c[nH]c(-c2ccc(-c3cc4ccc(-c5ncc[nH]5)cc4[nH]3)cc2)n1 | 42.7 | 22.4 | 45.3 | 9.4 | 5
CNc1ccc2[nH]c(CCc3nc4cc(NC)ccc4[nH]3)nc2c1 | 14.1 | 12.8 | 34.2 | 3.9 | 4
Cc1cc(-c2nc3cc(C(=N)N)ccc3[nH]2)c(C)cc1-c1nc2cc(C(=N)N)ccc2[nH]1 | 26.5 | 15.6 | 29 | 3.7 | 7
N=C(N)c1ccc2[nH]c(CCCCCCCCc3nc4cc(C(=N)N)ccc4[nH]3)nc2c1 | 21.2 | 10.2 | 22.8 | 3.2 | 7
N=C(N)c1ccc2[nH]c(CCCCCc3nc4cc(C(=N)N)ccc4[nH]3)nc2c1 | 18.3 | 10.1 | 24.7 | 3.3 | 5
N=C(N)c1ccc2c(ccn2CCCCCn2ccc3cc(C(=N)N)ccc32)c1 | 12.9 | 10.2 | 15.3 | 5 | 2.6

Reference: ChEMBL document CHEMBL1126714, “Structure, DNA minor groove binding, and base pair specificity of alkyl- and aryl-linked bis(amidinobenzimidazoles) and bis(amidinoindoles)” (J Med Chem, 1993)
